Molecular target: Coagulation factor XI (Homo sapiens, UniProt P03951)
Assay: Inhibition of human coagulation factor 11a pre-incubated for 15 mins before substrate S2366 addition and measured after 2 hrs post substrate addition

Chain of Coagulation factor XI (P03951 19-387 limits assumed): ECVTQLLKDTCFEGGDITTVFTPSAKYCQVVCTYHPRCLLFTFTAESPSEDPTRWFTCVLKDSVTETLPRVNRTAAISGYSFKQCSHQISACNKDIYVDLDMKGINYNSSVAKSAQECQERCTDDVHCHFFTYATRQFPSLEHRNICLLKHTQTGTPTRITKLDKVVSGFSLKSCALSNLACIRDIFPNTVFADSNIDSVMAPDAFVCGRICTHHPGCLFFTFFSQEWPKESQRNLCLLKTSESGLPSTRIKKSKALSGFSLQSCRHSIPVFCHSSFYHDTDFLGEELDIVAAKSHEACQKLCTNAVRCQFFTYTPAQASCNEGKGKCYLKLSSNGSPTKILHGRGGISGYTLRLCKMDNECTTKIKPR
Chain of Coagulation factor XI (P03951 388-625 limits assumed): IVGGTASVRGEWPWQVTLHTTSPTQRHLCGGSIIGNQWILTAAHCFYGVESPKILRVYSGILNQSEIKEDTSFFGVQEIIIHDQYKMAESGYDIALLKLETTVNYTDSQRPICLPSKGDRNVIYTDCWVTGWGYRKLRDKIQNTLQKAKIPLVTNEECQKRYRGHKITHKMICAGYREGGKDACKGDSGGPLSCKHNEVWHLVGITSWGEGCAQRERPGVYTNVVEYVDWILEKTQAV

N=C(N)NCCCCNC(=O)Oc1c(Br)cc(O)c(CC(=O)O)c1Br
IC50: 6.3 µM
